Results on 2 molecules are retold here after ChEMBL document CHEMBL5291721, “A preclinical secondary pharmacology resource illuminates target-adverse drug reaction associations of marketed drugs” (Nat Commun, 2023).

The target in assay [1] is T1, 5-hydroxytryptamine receptor 1A (Homo sapiens, UniProt P08908).
T1 sequence (P08908 whole entry): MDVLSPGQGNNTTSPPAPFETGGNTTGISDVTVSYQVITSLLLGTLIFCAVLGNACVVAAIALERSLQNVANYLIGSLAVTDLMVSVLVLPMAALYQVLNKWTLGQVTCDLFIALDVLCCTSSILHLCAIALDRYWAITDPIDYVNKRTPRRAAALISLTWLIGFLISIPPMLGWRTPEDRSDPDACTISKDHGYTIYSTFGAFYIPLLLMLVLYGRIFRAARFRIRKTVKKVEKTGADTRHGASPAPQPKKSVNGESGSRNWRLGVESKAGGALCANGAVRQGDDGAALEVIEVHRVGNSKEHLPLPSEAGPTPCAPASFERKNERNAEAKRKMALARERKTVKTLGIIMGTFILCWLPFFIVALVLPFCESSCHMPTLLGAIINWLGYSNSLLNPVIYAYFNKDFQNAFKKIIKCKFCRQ
The assay is classed as functional, cell-based.

Assay [2] has as its target T2, Type-1 angiotensin II receptor (Homo sapiens, UniProt P30556).
T2 sequence (P30556 whole entry): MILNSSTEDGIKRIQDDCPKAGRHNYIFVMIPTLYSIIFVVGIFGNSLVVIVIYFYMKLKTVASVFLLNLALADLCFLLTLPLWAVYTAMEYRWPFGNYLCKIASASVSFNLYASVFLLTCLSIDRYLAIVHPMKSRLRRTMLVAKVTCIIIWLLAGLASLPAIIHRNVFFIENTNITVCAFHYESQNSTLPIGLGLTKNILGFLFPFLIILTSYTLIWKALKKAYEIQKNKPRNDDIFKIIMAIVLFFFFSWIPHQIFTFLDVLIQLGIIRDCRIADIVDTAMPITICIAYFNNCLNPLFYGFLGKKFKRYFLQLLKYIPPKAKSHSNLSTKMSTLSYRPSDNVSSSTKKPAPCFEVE

Assay [3] deals with T3, Amine oxidase [flavin-containing] A (Homo sapiens, UniProt P21397).
T3 sequence (P21397 whole entry): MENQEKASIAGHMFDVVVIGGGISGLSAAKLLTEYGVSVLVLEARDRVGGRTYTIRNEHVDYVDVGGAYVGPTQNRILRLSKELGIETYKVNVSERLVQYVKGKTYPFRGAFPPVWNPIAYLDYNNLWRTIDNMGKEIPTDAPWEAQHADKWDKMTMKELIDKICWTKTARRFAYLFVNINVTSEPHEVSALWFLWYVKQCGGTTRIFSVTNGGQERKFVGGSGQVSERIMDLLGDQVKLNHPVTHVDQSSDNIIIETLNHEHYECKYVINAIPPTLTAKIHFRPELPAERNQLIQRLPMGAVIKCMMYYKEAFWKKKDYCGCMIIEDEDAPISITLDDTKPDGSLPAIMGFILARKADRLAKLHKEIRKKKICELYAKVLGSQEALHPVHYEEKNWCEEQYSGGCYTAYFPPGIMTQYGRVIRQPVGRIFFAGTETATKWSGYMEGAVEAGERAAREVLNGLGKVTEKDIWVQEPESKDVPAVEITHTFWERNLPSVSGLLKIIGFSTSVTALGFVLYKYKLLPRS
The assay is classed as functional.

For assay [4], the target named is Vasopressin V1a receptor (Homo sapiens, UniProt P37288).
Vasopressin V1a receptor, sequence (P37288 whole entry): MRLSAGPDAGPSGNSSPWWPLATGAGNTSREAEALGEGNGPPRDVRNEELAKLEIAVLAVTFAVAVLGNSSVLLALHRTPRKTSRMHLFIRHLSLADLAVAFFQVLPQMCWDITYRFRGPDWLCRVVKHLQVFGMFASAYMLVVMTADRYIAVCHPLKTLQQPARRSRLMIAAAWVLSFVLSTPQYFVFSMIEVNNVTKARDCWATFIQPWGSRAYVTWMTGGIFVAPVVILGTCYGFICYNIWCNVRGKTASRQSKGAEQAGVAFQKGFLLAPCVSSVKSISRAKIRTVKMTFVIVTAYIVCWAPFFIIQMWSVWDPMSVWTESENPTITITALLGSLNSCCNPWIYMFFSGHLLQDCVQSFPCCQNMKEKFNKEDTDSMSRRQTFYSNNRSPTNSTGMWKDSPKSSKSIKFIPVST
Assay [5] concerns the target Beta-2 adrenergic receptor (Homo sapiens, UniProt P07550). The assay is classed as functional, cell-based.
The target of assay [6] is Gamma-aminobutyric acid receptor subunit alpha-1 (Rattus norvegicus, UniProt P62813). Type of assay: functional.
Gamma-aminobutyric acid receptor subunit alpha-1, sequence (P62813 whole entry): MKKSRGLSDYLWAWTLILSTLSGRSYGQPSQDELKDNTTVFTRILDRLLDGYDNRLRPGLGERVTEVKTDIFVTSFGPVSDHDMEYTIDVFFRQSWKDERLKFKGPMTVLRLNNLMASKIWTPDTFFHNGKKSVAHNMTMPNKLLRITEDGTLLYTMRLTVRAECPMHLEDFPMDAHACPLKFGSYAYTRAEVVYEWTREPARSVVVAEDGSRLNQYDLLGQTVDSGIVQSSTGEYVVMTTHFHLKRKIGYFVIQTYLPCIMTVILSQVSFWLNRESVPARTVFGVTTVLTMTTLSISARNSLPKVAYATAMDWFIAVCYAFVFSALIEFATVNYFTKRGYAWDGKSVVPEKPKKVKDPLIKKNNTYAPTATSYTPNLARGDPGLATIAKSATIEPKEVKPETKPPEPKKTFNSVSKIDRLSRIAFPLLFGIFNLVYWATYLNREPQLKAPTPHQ
Assay [7] deals with Neuronal acetylcholine receptor subunit alpha-4 (Homo sapiens, UniProt P43681).
Neuronal acetylcholine receptor subunit alpha-4, sequence (P43681 whole entry): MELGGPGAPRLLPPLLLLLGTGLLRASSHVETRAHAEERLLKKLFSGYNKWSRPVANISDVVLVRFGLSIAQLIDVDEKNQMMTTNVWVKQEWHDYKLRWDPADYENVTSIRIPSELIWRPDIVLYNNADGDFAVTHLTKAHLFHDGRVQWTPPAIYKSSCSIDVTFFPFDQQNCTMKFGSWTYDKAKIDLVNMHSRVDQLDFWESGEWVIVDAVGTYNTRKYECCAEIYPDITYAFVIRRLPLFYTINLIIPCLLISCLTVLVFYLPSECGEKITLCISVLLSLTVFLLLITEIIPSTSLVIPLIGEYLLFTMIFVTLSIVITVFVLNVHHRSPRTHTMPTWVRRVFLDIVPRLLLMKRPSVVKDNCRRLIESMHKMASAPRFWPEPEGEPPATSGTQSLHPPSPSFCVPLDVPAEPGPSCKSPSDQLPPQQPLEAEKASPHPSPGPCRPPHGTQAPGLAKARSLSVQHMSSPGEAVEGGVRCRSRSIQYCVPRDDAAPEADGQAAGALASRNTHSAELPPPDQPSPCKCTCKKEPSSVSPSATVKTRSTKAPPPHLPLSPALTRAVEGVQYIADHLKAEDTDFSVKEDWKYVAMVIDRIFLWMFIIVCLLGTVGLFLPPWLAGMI
The target of assay [8] is Melanocortin receptor 3 (Homo sapiens, UniProt P41968).
Melanocortin receptor 3, sequence (P41968 whole entry): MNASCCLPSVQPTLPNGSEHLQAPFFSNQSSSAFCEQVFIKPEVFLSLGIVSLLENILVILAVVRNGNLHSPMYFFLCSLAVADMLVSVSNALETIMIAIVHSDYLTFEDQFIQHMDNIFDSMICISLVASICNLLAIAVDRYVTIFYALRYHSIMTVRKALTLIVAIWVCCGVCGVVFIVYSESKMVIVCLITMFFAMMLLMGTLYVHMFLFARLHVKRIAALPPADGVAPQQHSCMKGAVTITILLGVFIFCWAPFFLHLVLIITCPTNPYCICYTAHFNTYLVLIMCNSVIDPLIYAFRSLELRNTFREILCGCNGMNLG
Assay [9] addresses T4, Alpha-1A adrenergic receptor (Homo sapiens, UniProt P35348).
T4 sequence (P35348 whole entry): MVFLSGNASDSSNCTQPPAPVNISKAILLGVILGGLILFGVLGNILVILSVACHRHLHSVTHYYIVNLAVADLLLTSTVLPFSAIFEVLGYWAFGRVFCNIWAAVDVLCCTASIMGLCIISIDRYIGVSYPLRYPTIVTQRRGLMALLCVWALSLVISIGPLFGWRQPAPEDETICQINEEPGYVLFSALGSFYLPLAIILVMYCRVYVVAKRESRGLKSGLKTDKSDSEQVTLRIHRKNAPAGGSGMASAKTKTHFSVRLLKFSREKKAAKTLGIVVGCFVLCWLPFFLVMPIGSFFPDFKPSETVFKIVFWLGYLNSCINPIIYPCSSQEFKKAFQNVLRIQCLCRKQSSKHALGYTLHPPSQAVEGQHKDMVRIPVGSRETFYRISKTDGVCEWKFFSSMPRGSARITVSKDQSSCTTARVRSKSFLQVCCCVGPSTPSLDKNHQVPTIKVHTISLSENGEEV
Type of assay: functional, cell-based.

Assay [10] addresses Histamine H2 receptor (Homo sapiens, UniProt P25021). Type of assay: functional, cell-based.
Assay [11] concerns the target Vasopressin V2 receptor (Homo sapiens, UniProt P30518).
The target of assay [12] is T5, B2 bradykinin receptor (Homo sapiens, UniProt P30411).
T5 sequence (P30411 whole entry): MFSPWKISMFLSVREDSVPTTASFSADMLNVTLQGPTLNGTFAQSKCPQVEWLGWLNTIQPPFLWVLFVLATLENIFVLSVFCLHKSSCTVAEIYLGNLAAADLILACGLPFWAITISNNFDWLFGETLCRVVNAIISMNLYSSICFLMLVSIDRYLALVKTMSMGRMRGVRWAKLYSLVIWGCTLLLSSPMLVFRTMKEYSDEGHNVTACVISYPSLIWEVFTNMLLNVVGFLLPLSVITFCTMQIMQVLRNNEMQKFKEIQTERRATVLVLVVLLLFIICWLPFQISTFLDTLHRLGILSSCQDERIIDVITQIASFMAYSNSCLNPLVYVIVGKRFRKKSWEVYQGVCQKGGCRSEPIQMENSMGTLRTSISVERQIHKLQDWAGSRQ
Further: assay procedure not described here.

Beta-2 adrenergic receptor, sequence (P07550 whole entry): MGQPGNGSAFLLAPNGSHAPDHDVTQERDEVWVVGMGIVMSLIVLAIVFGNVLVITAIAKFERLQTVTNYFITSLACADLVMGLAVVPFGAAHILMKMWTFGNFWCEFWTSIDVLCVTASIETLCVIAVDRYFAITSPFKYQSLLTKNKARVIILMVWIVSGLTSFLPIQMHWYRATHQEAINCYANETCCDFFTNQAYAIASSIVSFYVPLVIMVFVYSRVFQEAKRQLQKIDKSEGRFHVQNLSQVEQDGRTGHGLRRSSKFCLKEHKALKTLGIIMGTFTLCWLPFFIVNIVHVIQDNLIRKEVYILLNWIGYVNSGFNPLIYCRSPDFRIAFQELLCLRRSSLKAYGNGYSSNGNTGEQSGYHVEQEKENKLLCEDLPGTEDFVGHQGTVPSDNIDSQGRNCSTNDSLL
Vasopressin V2 receptor, sequence (P30518 whole entry): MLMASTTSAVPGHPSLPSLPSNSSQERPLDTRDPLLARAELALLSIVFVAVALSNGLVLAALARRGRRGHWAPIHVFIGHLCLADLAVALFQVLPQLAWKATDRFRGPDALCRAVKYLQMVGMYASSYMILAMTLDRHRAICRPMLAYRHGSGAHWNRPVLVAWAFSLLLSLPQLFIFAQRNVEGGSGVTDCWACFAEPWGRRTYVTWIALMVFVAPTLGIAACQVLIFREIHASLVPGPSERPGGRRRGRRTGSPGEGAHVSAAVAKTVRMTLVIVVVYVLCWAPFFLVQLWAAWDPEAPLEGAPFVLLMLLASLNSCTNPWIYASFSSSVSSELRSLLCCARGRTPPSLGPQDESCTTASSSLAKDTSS
Histamine H2 receptor, sequence (P25021 whole entry): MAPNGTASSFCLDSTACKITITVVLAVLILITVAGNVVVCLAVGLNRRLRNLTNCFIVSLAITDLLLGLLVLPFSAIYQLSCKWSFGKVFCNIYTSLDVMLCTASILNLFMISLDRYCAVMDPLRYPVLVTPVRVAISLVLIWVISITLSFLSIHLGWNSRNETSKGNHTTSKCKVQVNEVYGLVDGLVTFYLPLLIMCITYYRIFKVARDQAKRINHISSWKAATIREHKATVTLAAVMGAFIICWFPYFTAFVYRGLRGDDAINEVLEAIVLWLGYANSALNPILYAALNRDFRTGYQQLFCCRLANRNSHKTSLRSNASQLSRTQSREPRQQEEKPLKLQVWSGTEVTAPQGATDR

On to `C#Cc1cccc(Nc2ncnc3cc(OCCOC)c(OCCOC)cc23)c1` [ERLOTINIB], for which the AC50 in assay [1], in assay [2], in [3], in assay [4], in assay [5] and in [6] was over 30 µM throughout. Also, the concentration at half-maximal activity (AC50) in assay [7], in assay [8] and in assay [9] was over 30 µM each time.

`Cn1c(=O)c2[nH]cnc2n(C)c1=O` [THEOPHYLLINE]: the half-maximal activity concentration (AC50) (as a rule, the concentration giving half of the maximal activity seen) is over 10 µM in assay [1]; over 30 µM in assay [2]; over 30 µM in [3]; over 30 µM in assay [4]; over 30 µM in assay [5]; over 10 µM in assay [10]. Also, the AC50 in [11] is over 30 µM; in assay [12] it was over 30 µM; in assay [6], over 10 µM; in assay [7], over 10 µM; in [8], over 30 µM; in assay [9] it was over 30 µM.
